For assay [1], the target named is T1, 11β-HSD2 (Homo sapiens, UniProt P80365).
T1 construct: endogenous in cells; host or cells: HepG2 (ATCC HB-8065)
T1 sequence (P80365 1-405): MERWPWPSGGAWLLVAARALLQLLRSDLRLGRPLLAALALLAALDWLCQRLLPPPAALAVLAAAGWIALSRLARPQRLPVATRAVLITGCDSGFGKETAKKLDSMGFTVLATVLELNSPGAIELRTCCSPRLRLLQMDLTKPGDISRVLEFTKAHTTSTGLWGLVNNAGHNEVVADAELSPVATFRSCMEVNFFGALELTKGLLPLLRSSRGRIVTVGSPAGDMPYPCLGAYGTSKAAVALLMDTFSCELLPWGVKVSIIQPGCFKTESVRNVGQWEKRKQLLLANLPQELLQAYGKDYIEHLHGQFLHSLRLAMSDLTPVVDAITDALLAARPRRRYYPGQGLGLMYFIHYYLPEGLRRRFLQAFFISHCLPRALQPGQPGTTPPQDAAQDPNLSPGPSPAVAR
Briefly: Cellular assay of 11β-HSD2 activity in HepG2 cells. In kind it is cell-based. The settings on record: 4 hour pre-incubation, 10^-5M to 10^-10M, read-out: HSD2 cellular HepG2 Score. The method, then:
The effects on 11β-HSD2 activity was studied in HepG2 and LCC-PK1-cells HepG2-cells (ATCC HB-8065) were seeded in 12 well plates at a density of 100,000 cells/ml and grown at 37° C. in a humidified 5% CO2 atmosphere in MEM-Rega-3 medium supplemented with 10% heat inactivated foetal calf serum, 2 mM L-glutamine and sodium bicarbonate). Medium was refreshed twice a week.
Following a 4 hour pre-incubation with test compound, 0.5 μCi ^3H-cortisol or corticosterone, was added to the cultures. One hour later, the medium was extracted on Extrelut^3-columns with 15 ml diethyl ether and the extract was analysed by HPLC as described above.
(§1) As for the enzymatic assays, the compounds to be tested were taken from a stock solution and tested at a final concentration ranging from 10^−5M to 10^−10M. From the thus obtained dose response curves, the pIC50 value was calculated and scored as follows; Score 1=pIC50 value<5, Score 2=pIC50 value in the range of 5 to 6, Score 3=pIC50 value>6. (in this table NT stands for Not Tested).

Assay [2] addresses T2, 11β-HSD1 (Mus musculus, UniProt P50172).
T2 construct: endogenous in cells; host or cells: 3T3-L1 (ATCC-CL-173), differentiated into adipocytes
Briefly: Cellular assay of 11β-HSD1 activity in differentiated 3T3-L1 cells. In kind it is cell-based. The settings on record: 4 hour pre-incubation, 10^-5M to 10^-10M, read-out: HSD1 cellular 3T3-L1 Score. The method, then: The effects on 11β-HSD1 activity was measured in differentiated 3T3-L1 cells and rat hepatocytes.
Mouse fibroblast 3T3-L1 cells (ATCC-CL-173) were seeded at a density of 16500 cells/ml in 12 well plates and grown for 7 days in DMEM medium (supplemented with 10% heat inactivated foetal calf serum, 2 mM glutamine and 25 mg gentamycin) at 37° C. in a humidified 5% CO2 atmosphere. Medium was refreshed twice a week. Fibroblasts were differentiated into adipocytes at 37° C. in a 5% CO2 humidified atmosphere in growth medium containing 2 μg/ml insulin, 55 μg/ml IBMX and 39.2 μg/ml dexamethasone.
Primary hepatocytes from male rats were seeded on normal Falcon 12 well plates at a density of 250000 cells/well and incubated for 16 hours at 37° C. in a 5% CO2 humidified atmosphere in DMEM-HAM's F12 medium containing 5% Nu-serum, 100 U/ml penicillin, 100 μg/ml streptomycin, 0.25 μg/ml amphotericin B, 50 μg/ml gentamycin sulfate, 5 μg/ml insulin and 392 ng/ml dexamethasone. Following a 4 hour pre-incubation with test compound, 0.5 μCi ^3H-cortisone or dehydrocorticosterone, was added to the 3T3-L1 cultures. One hour later, the medium was extracted on Extrelut^3-columns with 15 ml diethyl ether and the extract was analysed by HPLC as described above. The effects of JNJ-compounds on rat hepatocyte HSD1 activity was measured after an incubation period of 90 minutes with 0.5 μCi^3H-dehydrocorticosterone. Corticosterone formation was analysed by HPLC.
as §1

Where only a bound is given, the exact number is not on record here.

T2 sequence (P50172 whole entry): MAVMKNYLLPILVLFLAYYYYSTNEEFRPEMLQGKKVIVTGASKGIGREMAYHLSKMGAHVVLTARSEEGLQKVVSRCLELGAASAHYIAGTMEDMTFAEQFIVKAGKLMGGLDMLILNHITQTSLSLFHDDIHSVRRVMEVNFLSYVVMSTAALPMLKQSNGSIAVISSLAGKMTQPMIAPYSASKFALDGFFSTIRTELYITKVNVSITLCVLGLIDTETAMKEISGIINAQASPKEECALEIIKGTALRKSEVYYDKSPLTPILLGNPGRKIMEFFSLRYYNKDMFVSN

Take `Cc1cc(Cl)ccc1OC(C)(C)C(=O)N[C@H]1[C@@H]2CC3C[C@H]1C[C@](NS(=O)(=O)N(C)C)(C3)C2` [Compound 30]: the IC50 is 1 to 10 µM in assay [1] and less than 1000 nM in assay [2].

Consider `Cc1cc(Cl)ccc1OC(C)(C)C(=O)N[C@H]1[C@@H]2CC3C[C@H]1C[C@](NC(=O)CCl)(C3)C2` [Compound 31], for which the results for the IC50 in assay [1] and in assay [2] were 1 to 10 µM and less than 1000 nM, respectively.

For the molecule `Cc1cc(Cl)ccc1OC(C)(C)C(=O)N[C@H]1[C@@H]2CC3C[C@H]1C[C@](N)(C3)C2` [Compound 32], the IC50 is more than 10 µM in assay [1] and less than 1000 nM in assay [2].

Consider `Cc1cc(Cl)ccc1OC(C)(C)C(=O)N[C@H]1[C@@H]2CC3C[C@H]1C[C@](NS(C)(=O)=O)(C3)C2` [Compound 33], for which the results for the IC50 in assay [1] and in assay [2] were 1 to 10 µM and less than 1000 nM, respectively.

Turning to `Cc1ccccc1NC(C)(C)C(=O)N[C@H]1[C@@H]2CC3C[C@H]1C[C@](O)(C3)C2` [Compound 34], the IC50 in assay [1] is 1 to 10 µM; in assay [2], less than 1000 nM.

`Cc1ccccc1NC(C)(C)C(=O)N[C@H]1[C@@H]2CC3C[C@H]1C[C@](F)(C3)C2` [Compound 35]: the IC50 is 1 to 10 µM in assay [1] and less than 1000 nM in assay [2].

In the case of `CC(=O)N[C@@]12CC3C[C@H](C1)[C@H](NC(=O)C(C)(C)Nc1ccc(C)cc1)[C@@H](C3)C2` [Compound 37], the results for the IC50 in assay [1] and in assay [2] were more than 10 µM and less than 1000 nM, respectively.

With `COC(=O)CC(=O)N[C@@]12CC3C[C@H](C1)[C@H](NC(=O)C(C)(C)Oc1ccc(Cl)cc1C)[C@@H](C3)C2` [Compound 38], the figures for the IC50 in assay [1] and in assay [2] were 1 to 10 µM and less than 1000 nM, respectively.

Consider `Cc1cc(Cl)ccc1OC(C)(C)C(=O)N[C@H]1[C@@H]2CC3C[C@H]1C[C@](N1CCCC1=O)(C3)C2` [Compound 39], for which the IC50 in assay [1] is less than 1 µM; in assay [2] it was less than 1000 nM.

For the molecule `Cc1ccc(OC(C)(C)C(=O)N[C@H]2[C@@H]3CC4C[C@H]2C[C@](OC(=O)CN2CCOCC2)(C4)C3)cc1` [Compound 41], the results for the IC50 in assay [1] and in assay [2] were 1 to 10 µM and less than 1000 nM, respectively.

Regarding `Cc1cc(Cl)ccc1OC(C)(C)C(=O)N[C@H]1[C@@H]2CC3C[C@H]1C[C@](NC(=O)CN(C)CCO)(C3)C2` [Compound 42], the figures for the IC50 in assay [1] and in assay [2] were 1 to 10 µM and less than 1000 nM, respectively.

Take `CC(C)(Oc1cccc(Cl)c1)C(=O)N[C@H]1[C@@H]2CC3C[C@H]1C[C@](O)(C3)C2` [Compound 43]: the IC50 is less than 1 µM in assay [1] and less than 1000 nM in assay [2].

For `CN(C)CCCO[C@@]12CC3C[C@H](C1)[C@H](NC(=O)C(C)(C)Oc1cccc(Cl)c1)[C@@H](C3)C2` [Compound 44], the IC50 in assay [1] was 1 to 10 µM; in assay [2], less than 1000 nM.

Consider `CCOC(=O)N[C@@]12CC3C[C@H](C1)[C@H](NC(=O)C(C)(C)Oc1ccc(Cl)cc1C)[C@@H](C3)C2` [Compound 45], for which the IC50 in assay [1] was 1 to 10 µM; in assay [2], less than 1000 nM.

For the molecule `Cc1cc(Cl)ccc1OC(C)(C)C(=O)N[C@H]1[C@@H]2CC3C[C@H]1C[C@](N(C)C)(C3)C2` [Compound 46], the results for the IC50 in assay [1] and in assay [2] were more than 10 µM and less than 1000 nM, respectively.

For the molecule `Cc1ccc(OC(C)(C)C(=O)N[C@H]2[C@@H]3CC4C[C@H]2C[C@](OC(=O)Nc2cccc(C)c2)(C4)C3)cc1` [Compound 47], the IC50 in assay [1] was 1 to 10 µM; in assay [2], less than 1000 nM.

For `Cc1ccc(OC(C)(C)C(=O)N[C@@H]2[C@@H]3CC4C[C@H]2C[C@](OCc2ccccc2)(C4)C3)cc1` [Compound 48], the IC50 was less than 1 µM in assay [1] and less than 1000 nM in assay [2].

`Cc1ccc(OC(C)(C)C(=O)NC2C3CC4CC2CC(c2ccccc2)(C4)C3)cc1` (stereo not shown) [Compound 49]: the IC50 in assay [1] is more than 10 µM; in assay [2], 1000 to 10000 nM.

`Cc1cc(Cl)ccc1OC(C)(C)C(=O)N[C@H]1[C@@H]2CC3C[C@H]1C[C@](C(=O)O)(C3)C2` [Compound 50]: the figures for the IC50 in assay [1] and in assay [2] were 1 to 10 µM and less than 1000 nM, respectively.

On to `Cc1ccc(OC(C)(C)C(=O)N[C@H]2[C@@H]3CC4C[C@H]2C[C@](OCc2ccccc2)(C4)C3)cc1` [Compound 52], for which the values for the IC50 in assay [1] and in assay [2] were 1 to 10 µM and less than 1000 nM, respectively.

For `COc1cccc(NC(C)(C)C(=O)N[C@H]2[C@@H]3CC4C[C@H]2C[C@](O)(C4)C3)c1` [Compound 53], the IC50 in assay [1] was more than 10 µM; in assay [2] it was less than 1000 nM.

Take `CC(C)(Nc1ccccc1)C(=O)N[C@H]1[C@@H]2CC3C[C@H]1C[C@](O)(C3)C2` [Compound 54]: the IC50 in assay [1] was more than 10 µM; in assay [2], less than 1000 nM.

Consider `Cc1cccc(NC(C)(C)C(=O)N[C@H]2[C@@H]3CC4C[C@H]2C[C@](O)(C4)C3)c1` [Compound 55], for which the IC50 is more than 10 µM in assay [1] and less than 1000 nM in assay [2].

`COc1cccc(NC(C)(C)C(=O)N[C@H]2[C@@H]3CC4C[C@H]2C[C@](F)(C4)C3)c1` [Compound 56]: the IC50 in assay [1] is more than 10 µM; in assay [2], less than 1000 nM.

Take `Cc1cccc(NC(C)(C)C(=O)N[C@H]2[C@@H]3CC4C[C@H]2C[C@](F)(C4)C3)c1` [Compound 57]: the IC50 in assay [1] was more than 10 µM; in assay [2] it was less than 1000 nM.

As to `COc1ccc(NC(C)(C)C(=O)N[C@H]2[C@@H]3CC4C[C@H]2C[C@](O)(C4)C3)cc1` [Compound 58], the IC50 was more than 10 µM in assay [1] and less than 1000 nM in assay [2].

`COc1ccc(NC(C)(C)C(=O)N[C@H]2[C@@H]3CC4C[C@H]2C[C@](F)(C4)C3)cc1` [Compound 59]: the IC50 in assay [1] was more than 10 µM; in assay [2], less than 1000 nM.

With `CC(C)(Nc1cccc(C(F)(F)F)c1)C(=O)N[C@H]1[C@@H]2CC3C[C@H]1C[C@](O)(C3)C2` [Compound 60], the figures for the IC50 in assay [1] and in assay [2] were more than 10 µM and less than 1000 nM, respectively.

For the molecule `CC(C)(Nc1cccc(C(F)(F)F)c1)C(=O)N[C@H]1[C@@H]2CC3C[C@H]1C[C@](F)(C3)C2` [Compound 61], the IC50 is more than 10 µM in assay [1] and less than 1000 nM in assay [2].

With `Cc1ccc(NC(C)(C)C(=O)N[C@H]2[C@@H]3CC4C[C@H]2C[C@](F)(C4)C3)cc1` [Compound 62], the IC50 in assay [1] is more than 10 µM; in assay [2], less than 1000 nM.

For `CCC(=O)N[C@@]12CC3C[C@H](C1)[C@H](NC(=O)C(C)(C)Oc1ccc(Cl)cc1C)[C@@H](C3)C2` [Compound 63], the IC50 was less than 1 µM in assay [1] and less than 1000 nM in assay [2].

As for `Cc1cc(Cl)ccc1OC(C)(C)C(=O)N[C@H]1[C@@H]2CC3C[C@H]1C[C@](NC(=O)CC(C)C)(C3)C2` [Compound 64], the IC50 is 1 to 10 µM in assay [1] and less than 1000 nM in assay [2].

As for `CC(=O)N[C@@]12CC3C[C@H](C1)[C@H](NC(=O)C(C)(C)Nc1cccc(C(F)(F)F)c1)[C@@H](C3)C2` [Compound 65], the IC50 was more than 10 µM in assay [1] and less than 1000 nM in assay [2].

As to `COc1cccc(NC(C)(C)C(=O)N[C@H]2[C@@H]3CC4C[C@H]2C[C@](NC(C)=O)(C4)C3)c1` [Compound 66], the figures for the IC50 in assay [1] and in assay [2] were 1 to 10 µM and less than 1000 nM, respectively.

For the molecule `CC(C)(Oc1ccc(Cl)cc1)C(=O)N[C@H]1[C@@H]2CC3C[C@H]1C[C@](O)(C3)C2` [Compound 67], the IC50 in assay [1] was 1 to 10 µM; in assay [2], less than 1000 nM.

For the molecule `CC(C)(Nc1ccccc1)C(=O)N[C@H]1[C@@H]2CC3C[C@H]1C[C@](F)(C3)C2` [Compound 68], the IC50 is more than 10 µM in assay [1] and less than 1000 nM in assay [2].

On to `CC(C)(Oc1ccccc1)C(=O)N[C@H]1[C@@H]2CC3C[C@H]1C[C@](O)(C3)C2` [Compound 69], for which the values for the IC50 in assay [1] and in assay [2] were 1 to 10 µM and less than 1000 nM, respectively.

On to `CC(=O)N[C@@]12CC3C[C@H](C1)[C@H](NC(=O)C(C)(C)Nc1cccc(C)c1)[C@@H](C3)C2` [Compound 70], for which the IC50 in assay [1] was 1 to 10 µM; in assay [2], less than 1000 nM.

The values are drawn from patent US8344181B2, “N-2 adamantanyl-2-phenoxy-acetamide derivatives as 11-beta hydroxysteroid dehydrogenase inhibitors” (Janssen Pharmaceutica N.V., priority 2004, dated 2013).
